Experiments:
[1] = test system: bleomycin-induced lung inflammation; test: Interstitial/alveolar inflammatory cell infiltrate score, BLM rat model, combination study (Example 3); assay type: in vivo, rat (male Sprague Dawley); conditions: BLM-induced rats; alone or in combination, vs PO plus IV vehicles; data not shown
Method: (§1) The five lung lobes were collected and weighed. On Day 17, the right accessory lobe was retained and desiccated to obtain dry weight. The remaining right lung lobes were inflated and fixed in 10% neutral buffered formalin and embedded in paraffin for histological analysis. An approximately 50 mg piece of the left lung lobe was snap frozen and stored at −80° C. for potential RNA analysis. The remainder of the lobe was also snap frozen until analyzed for collagen content.
(§2) Sections for histology were stained using picrosirius red and were scored in a blinded fashion (1 score for each of the 3-4 lobes) by a veterinary pathologist using a modified Ashcroft score (Hubner et al., 2008). Hydroxyproline content was determined in the left lung lobe using a mass spectrometry method.
(§3) Slides were read by a veterinary pathologist and each of the 3 lobes evaluated was assigned 4 score types [Ashcroft for fibrosis (scores range from 0 to 8), perivascular/peribronchiolar inflammatory cell infiltrate (scores range from 0 to 5), interstitial/alveolar inflammatory cell infiltrate (scores range from 0 to 5), type II pneumocyte hyperplasia (scores range from 0 to 5)].

[2] = test system: bleomycin-induced lung fibrosis; test: Histological fibrosis (modified Ashcroft) score, BLM rat model (Example 2); assay type: in vivo, rat (male Sprague Dawley); conditions: BLM-induced rats
Method: as §1, with “weighed.” for “weighed. On Day 17, the right accessory lobe was retained and desiccated to obtain dry weight.”, “The” for “The remaining”
as §2, with “4” for “3-4”
as §3, with “4” for “3”, “scores” for “score types”
Having noted the high variability in mean Ashcroft Index Scores within groups and also in lung pathology within each individual due to the focal nature of the model, we analyzed Ashcroft scores from all fields scored (4 per animal), which increased the number of observations to 24-32 in BLM-induced groups.

[3] = test system: bleomycin-induced lung fibrosis; test: Histological fibrosis (modified Ashcroft) score, BLM mouse model (Example 1); assay type: in vivo, mouse (male C57Bl/6J); conditions: BLM-induced mice
Method: The five lung lobes were collected and isolated. Wet weight of the medial and accessory lung lobes was recorded. The lobes were then snap frozen and stored at <−70° C. until use for hydroxyproline analysis. The left lung lobe was inflated and fixed for 48 hours in 4% formaldehyde and embedded in paraffin for histological analysis. The cranial lung lobe was snap frozen and stored at −80° C. until shipment to Kinemed for the determination of new collagen formation.
Sections of the left lung lobe were stained using Masson's Trichrome and were scored in a blinded fashion using a modified Ashcroft score (Hubner et al., BioTechniques. 44:507-511, 514-507, 2008). Hydroxyproline content was determined in the medial and accessory lung lobes using acid hydrolysis followed by a chromogenic assay (QuickZyme Biosciences, Leiden, Netherlands). Newly formed collagen was measured in the cranial lung lobe by Kinemed Inc., Emeryville, USA using the fraction of body water enriched in 2H for normalization.

[4] = test system: bleomycin-induced respiratory impairment; test: Respiratory measurements by whole body plethysmography, BLM rat model (Example 2, Table E4); assay type: in vivo, rat (male Sprague Dawley); conditions: for Expiratory Time / Inspiratory Time / Peak Expiratory Flow / Peak Inspiratory Flow / Tidal Volume / Respiratory Rate / Respiratory Minute Volume: Ninte. 60 mg/kg PO daily from Day 1, mean; for Respiratory Rate: in breaths/min (unit assumed); for Respiratory Minute Volume: in mL/min (unit assumed)
Method: PBS or BLM was administered under isoflurane anesthesia.
In-life, body weights were measured and clinical observations were conducted daily. On Day 8 and Day 15, animals were removed from their home cages and placed individually into whole body plethysmography chambers. After a 20-minute acclimatization phase, respiratory parameters were recorded for 10 minutes.

[5] = test system: bleomycin-induced lung inflammation and fibrosis; test: Cell counts in BAL fluid, BLM mouse model (Example 1); assay type: in vivo, mouse (male C57Bl/6J); conditions: BLM-induced mice; daily PO from Day 0: dexamethasone 0.25 mg/kg, Nintedanib 60 mg/kg; vs PO vehicle
Method: Lung inflammation and fibrosis were induced in male C57Bl/6J mice by oropharyngeal administration of BLM. After the habituation phase mice were randomized based on body weight over the different groups. Under isoflurane anesthesia, 50 μl PBS or BLM was dripped onto the vocal cords facilitating aspiration. Mice were sacrificed at day 21 using a terminal bleed under isoflurane anesthesia.
Daily oral treatments commenced on Day 0, while daily IV treatments commenced on Day 8. Dosing was planned to continue until the day of termination (Day 21), however, due to high mortality in IV treated groups (see results), IV dosing was skipped on Day 19 and Day 20. […] Subsequently, the mice received 8% D20 (Kinemed, Emeryville) drinking water until sacrifice to maintain labeling of newly formed collagen. Body weight was monitored three times a week.
The lungs were flushed two times with 750 μl PBS, combined into one bronchoalveolar lavage (BAL) sample, and stored on ice until centrifugation. The supernatant was collected and stored frozen (<−70° C.). The erythrocytes in the cell pellet were lysed and the remaining cells were resuspended in 100 μl PBS. 20 μl was diluted in trypan blue solution and used for counting the live cells using a hemocytometer.

COC(=O)c1ccc2c(c1)NC(=O)/C2=C(\Nc1ccc(N(C)C(=O)CN2CCN(C)CC2)cc1)c1ccccc1 [Nintedanib, nintedanib]
Interstitial inflammatory cell infiltrate [1]: no significant effect | Decrease of group mean Ashcroft score vs respective vehicle ([2]; Day 22, Nintedanib PO, Test Article = HRS^FC1 1 mg/kg IV on Days 2, 9 and 16, not significant): 5% | Group mean Ashcroft score, significance vs respective vehicle ([2]; Day 22, Nintedanib PO, Test Article = HRS^FC1 IV): did not meet statistical criteria | Overall effects in this experiment ([2]; Nintedanib (50 mg/kg/dose) starting on Day 9, as printed in Summary): no significant effects | Group mean histological (Ashcroft) score, significance vs respective vehicle ([3]; left lung lobe, Day 21, dexamethasone/Nintedanib PO, Test Article = HisRS1^N8 IV): did not result in a significant decrease | Overall effects in this experiment ([3]; Nintedanib 60 mg/kg/dose from day of BLM instillation): no significant effects | BLM-induced alterations in respiratory parameters ([4]; BLM-induced rats, Day 15, Nintedanib 60 mg/kg PO, Test Article = HRS^FC1 IV weekly): did not significantly impact | Respiratory minute volume (RMV) ([4]; BLM-induced rats, Day 15, Nintedanib PO, Test Article = HRS^FC1 0.1-3 mg/kg from Day 9 or Day 2, FIG. 3): no impact on RMV | Expiratory Time ([4]; Day 8): 0.12 s | Inspiratory Time ([4]; Day 8): 0.09 s | Peak Expiratory Flow ([4]; Day 8): 28.4 | Peak Inspiratory Flow ([4]; Day 8): 26.7 | Tidal Volume ([4]; Day 8): 1.5 mL | Respiratory Rate ([4]; Day 8): 313.0 | Respiratory Minute Volume ([4]; Day 8): 477.5 | Expiratory Time ([4]; Day 15): 0.12 s | Inspiratory Time ([4]; Day 15): 0.09 s | Peak Expiratory Flow ([4]; Day 15): 28.8 | Peak Inspiratory Flow ([4]; Day 15): 29.0 | Tidal Volume ([4]; Day 15): 1.6 mL | Respiratory Rate ([4]; Day 15): 317.3 | Respiratory Minute Volume ([4]; Day 15): 534.6 | Live cells counted in BAL fluid at termination [5]: did not significantly affect

From patent US11767520B2, “Compositions and methods for treating lung inflammation” (aTyr Pharma, Inc., priority 2017, dated 2023)
